# What was measured:
# [1] = biological target: T1, NAD-dependent protein deacetylase sirtuin-2 (Homo sapiens) (UniProt Q8IXJ6); assay: Inhibition of GST-tagged human recombinant SIRT2 (34 to 356 residues) expressed in Escherichia coli BL21 at 10 uM using Fluor de Lys-SIRT as substrate incubated for 60 mins prior to substrate addition measured after 45 mins by fluorimetric analysis
# T1 sequence (whole entry): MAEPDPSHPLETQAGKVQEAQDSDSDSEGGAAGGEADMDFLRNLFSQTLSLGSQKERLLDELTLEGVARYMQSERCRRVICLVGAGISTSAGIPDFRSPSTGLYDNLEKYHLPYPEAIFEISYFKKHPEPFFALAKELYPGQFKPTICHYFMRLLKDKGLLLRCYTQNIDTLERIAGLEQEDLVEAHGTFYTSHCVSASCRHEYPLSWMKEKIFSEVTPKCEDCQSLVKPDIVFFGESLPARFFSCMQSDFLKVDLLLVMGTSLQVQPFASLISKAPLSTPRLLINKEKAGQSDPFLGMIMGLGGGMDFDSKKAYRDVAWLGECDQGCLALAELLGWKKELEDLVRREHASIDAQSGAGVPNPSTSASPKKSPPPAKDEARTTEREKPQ
# [2] = biological target: T1, NAD-dependent protein deacetylase sirtuin-2 (Homo sapiens); assay: Inhibition of GST-tagged human recombinant SIRT2 (34 to 356 residues) expressed in Escherichia coli BL21 at 50 uM using Fluor de Lys-SIRT as substrate incubated for 60 mins prior to substrate addition measured after 45 mins by fluorimetric analysis
# [3] = biological target: T2, NAD-dependent protein deacetylase sirtuin-2 (Homo sapiens, UniProt Q8IXJ6); assay: Inhibition of GST-tagged human recombinant SIRT2 (34 to 356 residues) expressed in Escherichia coli BL21 using Fluor de Lys-SIRT as substrate incubated for 60 mins prior to substrate addition measured after 45 mins by fluorimetric analysis
# T2 sequence (Q8IXJ6 whole entry): T1 sequence (whole entry)
# [4] = biological target: T1, NAD-dependent protein deacetylase sirtuin-2 (Homo sapiens); conditions: 25 uM
# Description: Inhibition of human recombinant SIRT2 at 25 uM
# [5] = biological target: T3, NAD-dependent protein deacetylase sirtuin-3, mitochondrial (Homo sapiens, UniProt Q9NTG7); assay: Inhibition of human SIRT3
# T3 sequence (Q9NTG7 whole entry): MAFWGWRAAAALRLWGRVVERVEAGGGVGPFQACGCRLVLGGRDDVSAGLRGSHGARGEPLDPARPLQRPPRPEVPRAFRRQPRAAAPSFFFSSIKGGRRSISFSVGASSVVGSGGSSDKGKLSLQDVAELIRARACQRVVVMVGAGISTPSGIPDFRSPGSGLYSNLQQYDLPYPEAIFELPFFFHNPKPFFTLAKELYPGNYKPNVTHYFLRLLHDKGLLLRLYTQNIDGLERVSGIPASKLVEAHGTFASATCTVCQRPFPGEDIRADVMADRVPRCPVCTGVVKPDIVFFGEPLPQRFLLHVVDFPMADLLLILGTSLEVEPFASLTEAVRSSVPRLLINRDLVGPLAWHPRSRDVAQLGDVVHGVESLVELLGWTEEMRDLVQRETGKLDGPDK
# [6] = biological target: T4, NAD-dependent protein deacetylase sirtuin-1 (Homo sapiens, UniProt Q96EB6); assay: Inhibition of human SIRT1
# T4 sequence (Q96EB6 whole entry): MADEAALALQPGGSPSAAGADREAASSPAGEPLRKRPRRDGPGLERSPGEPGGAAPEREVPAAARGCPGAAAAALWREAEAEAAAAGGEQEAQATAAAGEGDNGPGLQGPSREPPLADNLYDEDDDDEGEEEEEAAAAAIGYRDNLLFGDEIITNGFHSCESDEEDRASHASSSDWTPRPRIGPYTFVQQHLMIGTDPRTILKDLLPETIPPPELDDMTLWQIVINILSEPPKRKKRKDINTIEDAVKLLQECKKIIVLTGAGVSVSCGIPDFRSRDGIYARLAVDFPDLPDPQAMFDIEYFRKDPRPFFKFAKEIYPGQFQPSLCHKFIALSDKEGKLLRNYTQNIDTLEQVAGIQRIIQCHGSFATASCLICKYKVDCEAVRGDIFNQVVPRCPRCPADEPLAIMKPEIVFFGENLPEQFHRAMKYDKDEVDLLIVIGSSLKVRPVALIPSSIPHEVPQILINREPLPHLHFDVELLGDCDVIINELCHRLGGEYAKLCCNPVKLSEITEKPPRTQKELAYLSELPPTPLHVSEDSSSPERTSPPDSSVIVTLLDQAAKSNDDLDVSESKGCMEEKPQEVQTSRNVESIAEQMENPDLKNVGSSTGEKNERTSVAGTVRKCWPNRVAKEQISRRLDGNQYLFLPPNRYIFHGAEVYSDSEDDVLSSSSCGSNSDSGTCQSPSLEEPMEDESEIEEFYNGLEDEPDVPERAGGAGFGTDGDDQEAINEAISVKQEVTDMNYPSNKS
# [7] = biological target: T3, NAD-dependent protein deacetylase sirtuin-3, mitochondrial; assay: Inhibition of human recombinant SIRT3 using Fluor de Lys-SIRT as substrate incubated for 60 mins prior to substrate addition measured after 45 mins by fluorimetric analysis
# [8] = biological target: T4, NAD-dependent protein deacetylase sirtuin-1; assay: Inhibition of human recombinant SIRT1 using Fluor de Lys-SIRT as substrate incubated for 60 mins prior to substrate addition measured after 45 mins by fluorimetric analysis
SMILES,inhibition [1] [%],inhibition [2] [%],IC50 [3] [µM],further results
COc1ccccc1C(=O)Nc1cccc(-c2ccc3ccccc3c2)c1,10,47,–,–
O=C(Nc1cccnc1)c1cccc(-c2ccc3ccccc3c2)c1,–,–,3.3,–
O=C(Nc1cccc(NC(=O)c2ccccc2)c1)c1ccccc1,3,10,–,–
O=C(Nc1cccc(-c2ccc3ccccc3c2)c1)c1ccccc1Br,39,56,–,–
O=C(Nc1cccc(NC(=O)c2ccccc2Br)c1)c1cccc(Br)c1,0,19,–,–
Cc1cccc(C(=O)Nc2cccc(NC(=O)c3ccccc3Br)c2)c1,18,24,–,–
O=C(Nc1ccnnc1)c1cccc(-c2ccc3ccccc3c2)c1,–,–,6.3,–
O=C(Nc1ccccc1[N+](=O)[O-])c1cccc(-c2ccc3ccccc3c2)c1,30,76,–,–
O=C(Nc1cnccn1)c1cccc(-c2ccc3ccccc3c2)c1,–,–,6.2,–
COc1ccccc1NC(=O)c1cccc(-c2ccc3ccccc3c2)c1,51,89,11,–
COc1ccc(C(=O)Nc2cccc(NC(=O)c3cccc(Br)c3)c2)cc1,4,0,–,–
O=C(Nc1cccc(NC(=O)c2cccc(Br)c2)c1)c1cc(Cl)cc(Cl)c1,0,10,–,–
CC(C(=O)Nc1cccc(/N=C/c2c(O)ccc3ccccc23)c1)c1ccccc1 (centres undefined),–,–,–,inhibition [4]: 80%
O=C(Nc1nccs1)c1cccc(-c2ccc3ccccc3c2)c1,–,–,12,–
O=C(Nc1cccc(-c2ccc3ccccc3c2)c1)c1cccc(Br)c1,19,43,–,–
O=C(Nc1cccnn1)c1cccc(-c2ccc3ccccc3c2)c1,–,–,0.9,–
O=C(Nc1cccc(Br)c1)c1cccc(S(=O)(=O)N2CCCCCC2)c1,–,–,–,IC50 [5]: > 50 µM; IC50 [6]: > 50 µM
O=C(Nc1cccc(NC(=O)c2ccccc2Br)c1)c1ccccc1Br,3,49,–,–
O=C(Nc1ccccc1Br)c1cccc(-c2ccc3ccccc3c2)c1,64,95,5.3,–
O=C(Nc1ccncc1)c1cccc(-c2ccc3ccccc3c2)c1,–,–,16,–

SMILES,inhibition [1] [%],inhibition [2] [%],IC50 [3] [µM],further results
O=C(Nc1cc[nH]n1)c1cccc(-c2ccc3ccccc3c2)c1,–,–,42,–
O=C(Nc1cnccc1Br)c1cccc(-c2ccc3ccccc3c2)c1,–,–,0.6,IC50 [7]: > 100 µM; IC50 [8]: > 100 µM
COc1ccccc1C(=O)Nc1cccc(NC(=O)c2cccc(Br)c2)c1,11,39,–,–
COc1ccc(C(=O)Nc2cccc(NC(=O)c3ccccc3Br)c2)cc1,10,31,–,–
O=C(Nc1cccc(Br)c1)c1cccc(-c2ccc3ccccc3c2)c1,23,46,–,–
O=C(Nc1ccccn1)c1cccc(-c2ccc3ccccc3c2)c1,–,–,22,–
COc1ccccc1C(=O)Nc1cccc(NC(=O)c2ccccc2Br)c1,10,28,–,–
O=C(Nc1cccc(NC(=O)c2cccc(Br)c2)c1)c1cccc(Br)c1,7,12,–,–
COc1cccc(C(=O)Nc2cccc(-c3ccc4ccccc4c3)c2)c1,8,44,–,–
Nc1ccccc1NC(=O)c1cccc(-c2ccc3ccccc3c2)c1,22,29,–,–
COc1cccc(C(=O)Nc2cccc(NC(=O)c3ccccc3Br)c2)c1,4,19,–,–
O=C(Nc1ncccn1)c1cccc(-c2ccc3ccccc3c2)c1,–,–,13,–
N#C/C(=C\c1ccc(-c2cc(Cl)ccc2Cl)o1)C(=O)Nc1cccc2ncccc12,–,–,–,IC50 [6]: > 50 µM
O=C(Nc1ccccc1)c1cccc(-c2ccc3ccccc3c2)c1,21,14,–,–
O=C(Nc1nc[nH]n1)c1cccc(-c2ccc3ccccc3c2)c1,–,–,57,–
O=C(Nc1cccc(NC(=O)c2ccccc2Br)c1)c1ccccc1,8,28,–,–
O=C(Nc1cccc(NC(=O)c2cc(C(F)(F)F)cc(C(F)(F)F)c2)c1)c1cccc(Br)c1,3,12,–,–
COc1cccc(NC(=O)c2cccc(-c3ccc4ccccc4c3)c2)c1,29,66,–,–
Cc1ccccc1C(=O)Nc1cccc(NC(=O)c2ccccc2Br)c1,1,0,–,–
